Structures are written as SMILES.

As usually defined, the inhibition is the relative decrease from the control value, in per cent.

Data set [1] deals with T1, recombinant human 17β-HSD2 (Homo sapiens, UniProt P37059).
T1 construct: made in house; host or cells: Sd9 (Sf9) insect cells, baculovirus (Bac to Bac Expression System)
T1 sequence (P37059 1-387): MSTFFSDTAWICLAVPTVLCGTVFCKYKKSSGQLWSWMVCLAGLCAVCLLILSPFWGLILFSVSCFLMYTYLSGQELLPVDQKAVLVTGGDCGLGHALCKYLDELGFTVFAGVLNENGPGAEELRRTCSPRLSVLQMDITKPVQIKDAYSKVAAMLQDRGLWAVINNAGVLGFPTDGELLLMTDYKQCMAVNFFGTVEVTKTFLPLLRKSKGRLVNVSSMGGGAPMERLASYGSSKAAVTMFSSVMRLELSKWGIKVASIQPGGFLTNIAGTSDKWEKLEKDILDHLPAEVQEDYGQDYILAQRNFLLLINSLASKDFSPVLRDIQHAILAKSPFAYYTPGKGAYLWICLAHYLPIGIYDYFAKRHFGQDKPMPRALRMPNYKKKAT
As to the kind of experiment: Inhibition of recombinant human 17β-HSD2 (estradiol to estrone conversion, HPLC/radioactivity). Conditions: compound 1 μM; 50 nM estradiol, 1 mM NADH, 30 min RT. Format: biochemical. In short, it runs like this:
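Membrane extract of Sf9 cells expressing recombinant human 17β-HSD2 (4 μg/ml), in 20 mM KH2PO4 pH 8.5 with 50 nM ^3H-spiked estradiol and 1 mM NADH, 30 min at RT, 1% DMSO. Compound at 1 μM or 0.1 μM; estrone formation by HPLC radioactivity, % inhibition relative to uninhibited conversion.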

Data set [2] is described as follows: Metabolic stability assay, human hepatocyte incubations. Format: in vitro ADME. The following applies: compound 1 μM, human hepatocytes, 0-60 min at 37° C.; read-out: Human hepatocytes MetStab T½ min. In short, it runs like this: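 Compounds at 1 μM (1% DMSO final) incubated with human hepatocytes at 37 °C for 0, 10, 20, 40 and 60 min. Parent measured by LC-MS/MS as % remaining versus time zero; T1/2 obtained by regression of the disappearance curve.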

For the compound `C[C@]12CCC3c4cccc(F)c4CCC3C1[C@H](CCC(=O)Nc1ncccc1F)c1c[nH]nc12` (stereo partly drawn) [Compound 231, 3-((8aS,12S)-3-fluoro-8a-methyl-1,2,6b,7,8,8a,10,12,12a,12b-decahydronaphtho[2′,1′:4,5]indeno[1,2-c]pyrazol-12-yl)-N-(3-fluoropyridin-2-yl)propanamide], in data set [1], the inhibition at 1 µM came out at 4%. The half-life at 1 μM in data set [2] was 29 min.

The record behind these values is patent US20220041647A1, “ESTRA-1,3,5(10)-TRIENE COMPOUNDS CONDENSED IN POSITION 16(17) WITH A PYRAZOLE RING AS INHIBITORS OF 17-HSD1” (FORENDO PHARMA LTD, priority 2018, published 2022).
